Measurements as given in US10800791B2, “Triazole ACC inhibitors and uses thereof” (Gilead Apollo, LLC, priority 2015, dated 2020).
In brackets after ≈: the same amount, converted by molar mass. Read-outs that look alike come from different tables or passages of the source.

What was measured:
C. albicans = assay: Antifungal Activity Assay (broth microtiter MIC), C. albicans; assay type: cell-based, Candida albicans; conditions: Candida albicans, ATCC90028, 48 h, ATCC 90028, 3 replicates, MIC recorded at 48 h, read-out: MIC, C. albicans ATCC 90028
Method in brief: (§1)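 MICs were scored by eye at 48 h relative to the growth control. Plates followed CLSI M27-A3, with Candida suspensions in RPMI 1640+MOPS giving a final 2.5×10^3 CFU/mL; the colonies came from Sabouraud agar grown overnight at 35 °C.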

C. krusei = assay: Antifungal Activity Assay (broth microtiter MIC), C. krusei; assay type: cell-based, Candida krusei; conditions: Pichia kudriavzevii, ATCC6258, 48 h, ATCC 6258, 3 replicates, MIC recorded at 48 h, read-out: MIC, C. krusei ATCC 6258
Method in brief: as §1

C. parapsilosis = assay: Antifungal Activity Assay (broth microtiter MIC), C. parapsilosis; assay type: cell-based, Candida parapsilosis; conditions: Lodderomyces parapsilosis, ATCC22019, 48 h, ATCC 22019, 3 replicates, MIC recorded at 48 h, read-out: MIC, C. parapsilosis ATCC 22019
Method in brief: as §1

Botrtyis cinerea (Bc) = assay: Growth inhibition assay of fungal pathogens, Bc; assay type: cell-based; conditions: 48 h, Botrtyis cinerea, read-out: Concentration at 90% Inhibition Bc
Method in brief: (§2)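 Pathogen growth in 17% V8 broth is measured by OD600 at 24 and 48 hours, after blank subtraction, in the presence of compound at 50, 10 and 2 ppm or 2, 0.4 and 0.08 ppm. Inhibition in percent comes from 48-hour readings against the DMSO control.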

[1] = system: Collectotrichum graminicola (Cg); assay: Growth inhibition assay of fungal pathogens, Cg; assay type: cell-based; conditions: 48 h, Collectotrichum graminicola, read-out: Concentration at 90% Inhibition Cg
Method in brief: as §2

Diplodia maydis (Dm) = assay: Growth inhibition assay of fungal pathogens, Dm; assay type: cell-based; conditions: Stenocarpella maydis, 48 h, Diplodia maydis, read-out: Concentration at 90% Inhibition Dm
Method in brief: as §2

[2] = system: Fusarium moniliforme (Fm); assay: Growth inhibition assay of fungal pathogens, Fm; assay type: cell-based; conditions: Fusarium verticillioides, 48 h, Fusarium moniliforme, read-out: Concentration at 90% Inhibition Fm
Method in brief: as §2

[3] = system: Fusarium virguliforme (Fv); assay: Growth inhibition assay of fungal pathogens, Fv; assay type: cell-based; conditions: 48 h, read-out: Concentration at 90% Inhibition Fv
Method in brief: as §2

[4] = system: Phytophthora capsici (Pc); assay: Growth inhibition assay of fungal pathogens, Pc; assay type: cell-based; conditions: 48 h, read-out: Concentration at 90% Inhibition Pc
Method in brief: as §2

Septoria tritici (St) = assay: Growth inhibition assay of fungal pathogens, St; assay type: cell-based; conditions: Zymoseptoria tritici, 48 h, Septoria tritici, read-out: Concentration at 90% Inhibition St
Method in brief: as §2

fungal (fACC2) = fungal (fACC2) (UniProt Q00955); conditions: read-out: fACC2 (in vitro ACC2 Inhibition Assay, IC50), ADP-Glo, 5 nM ACC2, 20 μM ATP, 20 μM acetyl-CoA
Sequence of fungal (fACC2) (Q00955 whole entry): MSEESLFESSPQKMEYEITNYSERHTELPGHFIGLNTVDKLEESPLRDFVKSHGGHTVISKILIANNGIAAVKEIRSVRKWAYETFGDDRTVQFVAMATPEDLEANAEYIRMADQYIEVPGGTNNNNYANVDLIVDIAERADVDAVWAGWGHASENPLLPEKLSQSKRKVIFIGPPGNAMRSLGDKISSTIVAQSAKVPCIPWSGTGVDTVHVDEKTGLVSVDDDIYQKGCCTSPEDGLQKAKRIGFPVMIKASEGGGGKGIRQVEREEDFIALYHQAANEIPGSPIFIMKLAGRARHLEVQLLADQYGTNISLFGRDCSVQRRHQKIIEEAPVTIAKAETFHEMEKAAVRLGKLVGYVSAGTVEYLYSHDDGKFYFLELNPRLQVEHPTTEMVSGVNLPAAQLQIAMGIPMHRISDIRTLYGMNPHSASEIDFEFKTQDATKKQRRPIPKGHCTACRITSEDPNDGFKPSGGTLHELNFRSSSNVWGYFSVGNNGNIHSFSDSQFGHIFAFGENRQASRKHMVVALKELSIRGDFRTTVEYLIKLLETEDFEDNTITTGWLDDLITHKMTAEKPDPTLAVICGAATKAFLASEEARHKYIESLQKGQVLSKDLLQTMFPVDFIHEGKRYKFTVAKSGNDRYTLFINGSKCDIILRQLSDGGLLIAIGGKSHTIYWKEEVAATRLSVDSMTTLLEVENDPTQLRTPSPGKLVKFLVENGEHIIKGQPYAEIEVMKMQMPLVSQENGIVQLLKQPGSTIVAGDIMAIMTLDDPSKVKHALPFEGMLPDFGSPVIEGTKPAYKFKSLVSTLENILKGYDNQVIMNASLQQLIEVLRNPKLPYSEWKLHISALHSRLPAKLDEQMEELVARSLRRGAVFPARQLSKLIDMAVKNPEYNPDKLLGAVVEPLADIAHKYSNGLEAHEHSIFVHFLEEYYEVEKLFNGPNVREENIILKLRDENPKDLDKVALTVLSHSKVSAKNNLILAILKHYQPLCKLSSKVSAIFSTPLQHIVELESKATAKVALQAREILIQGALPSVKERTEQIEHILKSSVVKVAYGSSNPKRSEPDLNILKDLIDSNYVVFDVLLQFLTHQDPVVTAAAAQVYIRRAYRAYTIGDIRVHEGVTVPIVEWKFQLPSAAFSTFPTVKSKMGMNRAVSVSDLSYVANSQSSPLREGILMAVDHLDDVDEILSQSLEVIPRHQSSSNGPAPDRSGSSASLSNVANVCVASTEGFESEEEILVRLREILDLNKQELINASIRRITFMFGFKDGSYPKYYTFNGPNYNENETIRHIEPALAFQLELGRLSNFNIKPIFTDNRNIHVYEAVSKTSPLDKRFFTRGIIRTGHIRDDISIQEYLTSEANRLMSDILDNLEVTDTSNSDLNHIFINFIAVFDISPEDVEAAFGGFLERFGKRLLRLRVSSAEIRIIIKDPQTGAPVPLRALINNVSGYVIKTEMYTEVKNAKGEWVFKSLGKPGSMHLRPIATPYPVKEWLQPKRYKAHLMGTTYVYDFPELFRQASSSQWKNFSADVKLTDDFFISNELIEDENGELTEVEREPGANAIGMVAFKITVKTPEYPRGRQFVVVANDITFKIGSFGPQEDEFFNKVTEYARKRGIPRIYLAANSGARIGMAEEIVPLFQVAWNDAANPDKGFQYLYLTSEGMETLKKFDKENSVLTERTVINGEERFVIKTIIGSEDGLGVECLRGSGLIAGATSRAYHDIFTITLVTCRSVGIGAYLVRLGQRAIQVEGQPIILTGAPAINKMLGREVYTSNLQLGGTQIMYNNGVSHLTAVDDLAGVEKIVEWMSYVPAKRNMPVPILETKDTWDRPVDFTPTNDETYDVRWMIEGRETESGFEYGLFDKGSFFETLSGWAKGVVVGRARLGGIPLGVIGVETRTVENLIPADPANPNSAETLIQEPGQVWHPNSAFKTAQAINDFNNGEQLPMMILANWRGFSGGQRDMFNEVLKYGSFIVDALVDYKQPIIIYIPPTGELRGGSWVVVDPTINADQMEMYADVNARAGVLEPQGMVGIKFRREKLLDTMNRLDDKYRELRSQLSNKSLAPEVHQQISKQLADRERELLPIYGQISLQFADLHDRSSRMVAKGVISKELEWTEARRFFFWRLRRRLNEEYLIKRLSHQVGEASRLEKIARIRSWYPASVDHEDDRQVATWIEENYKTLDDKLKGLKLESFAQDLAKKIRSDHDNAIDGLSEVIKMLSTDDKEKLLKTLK

[5] = growth inhibition at 48 hours vs 2% DMSO control
[6] = growth inhibition vs 2% DMSO control at 48 hours

Compound	MIC (C. albicans; Table 3a) [µg/mL]	MIC (C. albicans; Table 3b (additional results)) [µg/mL]	MIC (C. krusei; Table 3a) [µg/mL]	MIC (C. krusei; Table 3b (additional results)) [µg/mL]	MIC (C. parapsilosis; Table 3a) [µg/mL]	MIC (C. parapsilosis; Table 3b (additional results)) [µg/mL]	IC90 (Botrtyis cinerea (Bc); [5]) [µg/mL]	IC90 (Botrtyis cinerea (Bc); [6]) [µg/mL]	IC90 [1, 5] [µg/mL]	IC90 [1, 6] [µg/mL]	IC90 (Diplodia maydis (Dm); [5]) [µg/mL]	IC90 (Diplodia maydis (Dm); [6]) [µg/mL]	IC90 [2, 5] [µg/mL]	IC90 [2, 6] [µg/mL]	IC90 [3, 5] [µg/mL]	IC90 [3, 6] [µg/mL]	IC90 [4, 5] [µg/mL]	IC90 [4, 6] [µg/mL]	IC90 (Septoria tritici (St); [5]) [µg/mL]	IC90 (Septoria tritici (St); [6]) [µg/mL]	further results
COc1ccc(F)cc1[C@H](Cn1c(=O)n([C@@H](C)C(=O)NC2CCC2)c(=O)c2c(C)c(-n3nccn3)sc21)OCCO [Compound I-77, (S)—N-cyclobutyl-2-(1-((R)-2-(5-fluoro-2-methoxyphenyl)-2-(2-hydroxyethoxy)ethyl)-5-methyl-2,4-dioxo-6-(2H-1,2,3-triazol-2-yl)-1,4-dihydrothieno[2,3-d]pyrimidin-3(2H)-yl)propanamide]	1.1 to 2 (≈ 1.88 to 3.41 µM)	2.01 to 4 (≈ 3.43 to 6.82 µM)	2.1 to 4 (≈ 3.58 to 6.82 µM)	0.25 to 1 (≈ 0.426 to 1.7 µM)	1.1 to 2 (≈ 1.88 to 3.41 µM)	0.25 to 1 (≈ 0.426 to 1.7 µM)	0.4 (≈ 0.682 µM)	0.4 (≈ 0.682 µM)	2 (≈ 3.41 µM)	10 (≈ 17 µM)	2 (≈ 3.41 µM)	2 (≈ 3.41 µM)	0.08 (≈ 0.136 µM)	0.08 (≈ 0.136 µM)	0.4 (≈ 0.682 µM)	0.4 (≈ 0.682 µM)	> 50	> 50	> 50	> 50	IC50 (fungal (fACC2); Table 2a): 1 to 5 nM; IC50 (fungal (fACC2); Table 2b, additional results): 1 to 5 nM
COc1ccc(F)cc1[C@H](Cn1c(=O)n([C@@H](C)C(=O)N(C)C(C)C)c(=O)c2c(C)c(-n3nccn3)sc21)OCCO [Compound I-78, (S)-2-(1-((R)-2-(5-fluoro-2-methoxyphenyl)-2-(2-hydroxy-ethoxy)ethyl)-5-methyl-2,4-dioxo-6-(2H-1,2,3-triazol-2-yl)-1,4-dihydrothieno[2,3-d]pyrimidin-3(2H)-yl)-N-isopropyl-N-methylpropanamide]	2.1 to 4 (≈ 3.57 to 6.8 µM)	1.01 to 2 (≈ 1.72 to 3.4 µM)	2.1 to 4 (≈ 3.57 to 6.8 µM)	1.01 to 2 (≈ 1.72 to 3.4 µM)	2.1 to 4 (≈ 3.57 to 6.8 µM)	2.01 to 4 (≈ 3.41 to 6.8 µM)	0.4 (≈ 0.68 µM)	0.4 (≈ 0.68 µM)	0.4 (≈ 0.68 µM)	0.4 (≈ 0.68 µM)	2 (≈ 3.4 µM)	2 (≈ 3.4 µM)	0.08 (≈ 0.136 µM)	0.08 (≈ 0.136 µM)	0.4 (≈ 0.68 µM)	0.4 (≈ 0.68 µM)	> 50	> 50	10 (≈ 17 µM)	> 50	IC50 (fungal (fACC2); Table 2a): 1 to 5 nM; IC50 (fungal (fACC2); Table 2b, additional results): 0.3 to 1 nM
